Data set [1] has as its target T1, LMP7 (Homo sapiens, UniProt P28062).
T1 construct: using MOLT-4 cell lysate as the enzyme source of LMP7; endogenous in cells; host or cells: MOLT-4 (human acute lymphoblastic leukemia cells)
Nature of the data set: Enzymatic inhibitory activity on LMP7 (MOLT-4 cell lysate, Ac-ANW-AMC substrate). The format is biochemical. To be noted: 1 hour pre-incubation. Summed up:
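Enzyme source was MOLT-4 cell lysate (20 ng/μl final) in 20 mM Tris pH 8.0, 0.5 mM EDTA, preincubated 1 h at 23 °C with compound at 9 final concentrations (0–2000 nM). Ac-ANW-AMC ([…]) was then added, 2 h at 23 °C in the dark. AMC fluorescence (ex 345/em 445 nm) gave the IC50.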

A short description of data set [2]: Animal pharmacokinetic study in rats, single gavage. As to conditions: rat, po; male rats, single gavage 5 mg/kg, plasma. In kind it is in vivo. Here is the method:
Three healthy adult male rats from Beijing Vital River Experimental animal Technology Co. Ltd were used for animal pharmacokinetic experiments. The compounds were suspended in 20% sulfobutyl ether-β-cyclodextrin (W/W/V) at a concentration of 1 mg/mL at a dosing volume of 5 mL/kg by single gavage at a dose of 5 mg/kg. Animals were fasted overnight before the experiment, from 10 hours before the administration to 4 hours after the administration. Blood was collected at 0.25, 0.5, 1, 2, 4, 6, 8, and 24 hours after the administration. The animals were anesthetized with isoflurane. About 0.4 mL of whole blood was collected from the orbital venous plexus using a glass blood collection tube and placed in a heparin anticoagulant tube. The sample was centrifuged at 4200 rpm for 5 min at 4° C. The plasma was transferred to a centrifuge tube and stored at −80° C. for later analysis. The plasma sample analysis used the acetonitrile protein precipitation method to extract the compound to be tested and internal standard (Warfarin or Propranolol) from rat plasma, and the extraction solution was analyzed by LC/MS/MS. The plasma concentration-time data of individual animals measured were analyzed using anon-compartmental model using the WinNonlin (version 5.2.1; Pharsight company) software, and the following pharmacokinetic parameters were obtained: maximum (peak) plasma drug concentration Cmax; Time to max Tmax; the area under the curve AUC0-inf of blood drug concentration-time from half-life T½ and extrapolation to infinite time.

The target of a further data set is T2, β5 (Homo sapiens, UniProt P28074).
T2 construct: using HEK-293 cell lysate as the enzyme source of D5; endogenous in cells; host or cells: HEK-293 (human embryonic kidney cells)
Kind of data set: Enzymatic inhibitory activity on β5 (HEK-293 cell lysate, Ac-WLA-AMC substrate). In kind it is biochemical. To be noted: 1 hour pre-incubation. Put shortly:
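HEK-293 lysate (25 ng/μl final) preincubated 1 h at 23 °C with compound (9-point, 5-fold dilutions) in 20 mM Tris pH 8.0, 0.5 mM EDTA. Ac-WLA-AMC then added at 20 μM final for 2 h at 23 °C in the dark. AMC fluorescence read at Ex 345/Em 445 nm; IC50 from curve fit.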

In data set [3] the target is T1, LMP7. Nature of the data set: Cytological inhibitory activity on LMP7 in MOLT-4 cells. As to conditions: incubation for 2 hours with compound, read-out: Cytological activity data LMP7 Activity (MOLT-4Cell). In kind it is cell-based. Put shortly:
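MOLT-4 cells pre-incubated 2 h with compound (8 concentrations, 5-fold dilution series from 2 mM DMSO stock, 5% FBS), washed and lysed. Lysate (20 ng/μl, 2× stock) reacted with Ac-ANW-AMC (100 μM, 2× stock) in 20 mM Tris pH 8.0, 0.5 mM EDTA, 1 h, 23 °C. Fluorescence at 345/445 nm; IC50 fitted.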

As to `O=C(N[C@@H](Cc1coc2ccccc12)B(O)O)C(=O)N1CCOCC1` [Ex. 5, (R)-(2-(benzofuran-3-yl)-1-(2-morpholino-2-oxoacetamido)ethyl)boronic acid], the IC50 at LMP7 [1] came to 15.6 nM. In addition, in data set [2], the AUC(0-inf) came out at 20900 ng·h/mL, the peak level (Cmax) was 3800 ng/mL, the Tmax amounted to 1.17 h and the half-life was 4.2 h.
In the case of `CC1(C)[C@@H]2C[C@H]3OB([C@H](Cc4coc5ccccc45)NC(=O)C(=O)Nc4ccccc4F)O[C@@]3(C)[C@H]1C2` [Ex. 52, (R)-(2-(benzofuran-3-yl)-1-(2-oxo-2-(2-fluorophenylamino)acetamido)ethyl) boronic acid (1S,2S,3R,5S)-(+)-pinane-2,3-diol ester], the IC50 at LMP7 [1] was determined as 1.61 nM; against β5, 32.4 nM; at LMP7 [3] it was 4.94 nM.
For `O=C(N[C@@H](Cc1coc2ccccc12)B(O)O)C(=O)N1C2CCC1COC2` [Ex. 39, (R)-(2-(benzofuran-3-yl)-1-(2-oxo-2-(3-oxa-8-azabicyclo[3.2.1]octan-8-yl)acetamido)ethyl)boronic acid], the IC50 came out at 5.95 nM on LMP7 [1], 392 nM on β5 and 3.51 nM at LMP7 [3].
For the compound `O=C(O)CC1(CC(=O)O)OB([C@H](Cc2coc3ccccc23)NC(=O)C(=O)Nc2cnccn2)OC1=O` [Ex. 18, (R)-2,2′-(2-(2-(benzofuran-3-yl)-1-(2-oxo-2-(pyrazin-2-ylamino)acetamido)ethyl)-5-oxo-1,3,2-dioxaborolane-4,4-diyl)diacetic acid], the figures for the IC50 at LMP7 [1], against β5 and at LMP7 [3] were 2.42 nM, 34.1 nM and 1.26 nM, respectively.
`COC(=O)C(=O)N[C@@H](Cc1coc2ccccc12)B1O[C@@H]2CC3C[C@@H](C3(C)C)[C@]2(C)O1` [Ex. 61, (R)-(2-(benzofuran-3-yl)-1-(2-oxo-2-methoxyacetamido)ethyl)boronic acid (1S,2S,3R,5S)-(+)-pinane-2,3-diol ester]: the results for the IC50 against LMP7 [1], against β5 and at LMP7 [3] were 4.27 nM, 722 nM and 46.6 nM, respectively.
Regarding `CC1COB([C@H](Cc2coc3ccccc23)NC(=O)C(=O)Nc2cnccn2)O1` (stereo partly drawn) [Ex. 68], the IC50 came out at 1.24 nM against LMP7 [1], 34.8 nM against β5 and 1.1 nM at LMP7 [3].
Take `Cc1csc(NC(=O)C(=O)N[C@@H](Cc2coc3ccccc23)B(O)O)n1` [Ex. 31, (R)-(2-(benzofuran-3-yl)-1-(2-oxo-2-((4-methylthiazol-2-yl)amino)acetamido)ethyl)boronic acid]: the IC50 against LMP7 [1] was 2.91 nM; against β5 it was 72.5 nM; on LMP7 [3], 11 nM.
As to `O=C(Nc1cnccn1)C(=O)N[C@@H](Cc1coc2ccccc12)B1OC(=O)c2ccccc2O1` [Ex. 20, N-((1R)-2-(1-benzofuran-3-yl)-1-(4-oxo-2,4-dihydro-1,3,2-benzo[d][1,3,2]dioxaborinin-2-yl)ethyl)-N-(pyrazin-2-yl)oxalamide], the IC50 was found to be 1.2 nM at LMP7 [1], 18.8 nM against β5 and 0.32 nM on LMP7 [3].
Regarding `O=C(Nc1cncnc1)C(=O)N[C@@H](Cc1coc2ccccc12)B(O)O` [Ex. 48, (R)-(2-(benzofuran-3-yl)-1-(2-oxo-2-(pyrimidin-5-ylamino)acetamido)ethyl) boronic acid], the IC50 on LMP7 [1] came out at 4.58 nM; against β5, 22.5 nM; on LMP7 [3] it was 11.1 nM.
Turning to `CC1(C)CC(C)(C)OB([C@H](Cc2coc3ccccc23)NC(=O)C(=O)Nc2cnccn2)O1` [Ex. 72], the IC50 stood at 1.46 nM at LMP7 [1], 21.8 nM on β5 and 0.98 nM at LMP7 [3].
Regarding `O=C(Nc1cccc2c1OCCO2)C(=O)N[C@@H](Cc1coc2ccccc12)B(O)O` [Ex. 30, (R)-(2-(benzofuran-3-yl)-1-(2-oxo-2-((2,3-dihydrobenzo[b][1,4]dioxin-5-yl)amino)acetamido)ethyl)boronic acid], the IC50 was 5.61 nM against LMP7 [1], 24.6 nM against β5 and 8.77 nM on LMP7 [3].
For the compound `O=C(Nc1nccs1)C(=O)N[C@@H](Cc1coc2ccccc12)B(O)O` [Ex. 25, (R)-(2-(benzofuran-3-yl)-1-(2-oxo-2-(thiazol-2-ylamino)acetamido)ethyl) boronic acid], in data set [2], the AUC(0-inf) was 108000 ng·h/mL, the concentration peaked (Cmax) at 7710 ng/mL, the Tmax came out at 0.42 h and the half-life is 14.4 h.
As for `Cn1cccc(NC(=O)C(=O)N[C@@H](Cc2coc3ccccc23)B(O)O)c1=O` [Ex. 58, (R)-(2-(benzofuran-3-yl)-1-(2-oxo-2-((1-methyl-2-oxo-1,2-dihydropyridin-3-yl)amino)acetamido)ethyl)boronic acid], the IC50 on LMP7 [1] was found to be 0.95 nM; against β5 it was 84.1 nM; on LMP7 [3], 5.45 nM.
Take `CC1(C)[C@@H]2C[C@H]3OB([C@H](Cc4coc5ccccc45)NC(=O)C(=O)Nc4ncc(F)s4)O[C@@]3(C)[C@H]1C2` [Ex. 33, (R)-(2-(benzofuran-3-yl)-1-(2-oxo-2-((5-fluorothiazol-2-yl)amino)acetamido)ethyl)boronic acid (1S,2S,3R,5S)-(+)-pinane-2,3-diol ester]: the IC50 on LMP7 [1] was 3.08 nM; at β5, 39 nM; on LMP7 [3], 9.5 nM.
The corresponding values for `O=C(Nc1cccc2c1OCC2)C(=O)N[C@@H](Cc1coc2ccccc12)B(O)O` [Ex. 28, (R)-(2-(benzofuran-3-yl)-1-(2-oxo-2-((2,3-dihydrobenzofuran-7-yl)amino)acetamido)ethyl)boronic acid] are 3.82 nM, 22.6 nM and 3.84 nM.
On the same counts, the results for `O=C(N[C@@H](Cc1coc2ccccc12)B(O)O)C(=O)N1CCCC(F)(F)C1` [Ex. 56, (R)-(2-(benzofuran-3-yl)-1-(2-oxo-2-(3,3-difluoropiperidin-1-yl)acetamido)ethyl)boronic acid] are 7.48 nM, 88.4 nM and 6.39 nM.
On to `O=C(Nc1cccnc1)C(=O)N[C@@H](Cc1coc2ccccc12)B(O)O` [Ex. 21, (R)-(2-(benzofuran-3-yl)-1-(2-(pyridin-3-yl)amino-2-oxoacetamido)ethyl) boronic acid], for which the IC50 is 2.86 nM against LMP7 [1], 29 nM against β5 and 3.45 nM at LMP7 [3].

These data come from US20240425529A1, “BORIC ACID DERIVATIVE” (SHOUYAO HOLDINGS (BEIJING) CO., LTD., priority 2021, published 2024).
